The IC50 is the concentration that inhibits the measured activity by half. The low end stands for inhibition by little substance, the high end for a need for much substance.

In assay [1] the test system is 5HT. As to conditions: cited from earlier work.
Assay [2] has as its system 5HT. As to conditions: phase IIA study, qid; cited from earlier work.
For assay [3], the system named is 5HT. As to conditions: mice, cited from earlier work.
Assay [4] deals with 5HT. As to conditions: 200 mg/kg i.p. qid for 3 days, cited from earlier work.
In a further assay the test system is cholangiocarcinoma. The following applies: xenograft model of cholangiocarcinoma; cited from earlier work.
The target in the next assay is T1, human TPH1 (Homo sapiens, UniProt P17752).
T1 sequence (P17752 1-444): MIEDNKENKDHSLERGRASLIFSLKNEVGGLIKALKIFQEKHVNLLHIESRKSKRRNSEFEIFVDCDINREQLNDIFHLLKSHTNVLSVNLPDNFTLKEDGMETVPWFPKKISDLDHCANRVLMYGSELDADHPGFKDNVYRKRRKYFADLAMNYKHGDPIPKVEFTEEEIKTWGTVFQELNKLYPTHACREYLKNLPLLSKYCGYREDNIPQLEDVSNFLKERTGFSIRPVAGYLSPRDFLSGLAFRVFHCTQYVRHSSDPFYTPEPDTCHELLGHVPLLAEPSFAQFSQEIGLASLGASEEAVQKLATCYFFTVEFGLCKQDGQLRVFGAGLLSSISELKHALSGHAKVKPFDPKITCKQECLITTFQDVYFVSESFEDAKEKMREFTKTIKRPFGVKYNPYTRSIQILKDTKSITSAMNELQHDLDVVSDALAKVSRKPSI
In words: biochemical. In a few lines: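 Inhibition is derived from 5-hydroxy-L-tryptophan fluorescence (540 nm emission, 300 nm excitation) after perchloric acid stop, relative to DMSO vehicle. Recombinant full-length human enzyme (40-80 nM) reacts with 40 μM tryptophan plus 100 μM methyltetrahydropterin, pH 7.6 Tris/DTT/catalase, 15° C, 60 min.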

For the compound `COc1cccc(-c2ccc([C@@H](Oc3cc(-c4ccc(C[C@H](N)C(=O)O)cc4)nc(N)n3)C(F)(F)F)cc2)c1` [LX1031, (S)-2-Amino-3-(4-{2-amino-6-[(R)-2,2,2-trifluoro-1-(3′-methoxy-biphenyl-4-yl)-ethoxy]-pyrimidin-4-yl}-phenyl)-propionic acid], the “brain 5HT” value with 5HT [1] (brain) is reported as “no effect on brain 5HT”. For the same compound, in the assay on 5HT [1] (colon), the “5HT in the colon” value was “only a minor reduction”. The “5HT in the jejunum” value in the assay on 5HT [1] (jejunum) was “lowers 5HT in the jejunum”. In the assay with 5HT [2], the “blood 5HT” value is recorded as “did not affect blood 5HT” and the “urinary 5HIAA reduction” value was “up to 30%”.
`Nc1nc(OC(c2ccc(-c3cccc(F)c3)cc2)C(F)(F)F)cc(-c2ccc(C[C@H](N)C(=O)O)cc2)n1` (stereo partly drawn) [LP533401]: the “brain 5HT concentrations” value in the assay on 5HT [3] (brain) is listed as “without effecting brain concentrations”. In addition, the “gut 5HT” value in the assay with 5HT [3] (gut) was “lower gut 5HT”.
For the compound `N[C@@H](Cc1ccc(Cl)cc1)C(=O)O` (racemic) [PCA, p-chlorophenylalanine], the “5HT in the brain” value in the assay with 5HT [4] (brain) is given as about 20 % original. For the same compound, the “5HT in the gut” value in the assay on 5HT [4] (gut) was about 50 % original. In the assay with cholangiocarcinoma, the tumor volume result was “dramatic reduction in tumor volume”.
In turn, `COc1ccc(C2c3c(nc4cc(C(F)(F)F)ccn34)CCN2C(=O)COc2cc(C)ccc2Cl)cc1OC` (stereo not drawn) [Example 3.1.12, 2-(2-chloro-5-methylphenoxy)-1-(1-(3,4-dimethoxyphenyl)-7-(trifluoromethyl)-3,4-dihydroimidazo[1,2-a:5,4-c′]dipyridin-2(1H)-yl)ethan-1-one] yielded an IC50 against human TPH1 of 64 nM.
In turn, `O=C(COc1ccc(CN2CCOCC2)cc1Cl)N1CCc2nc3cc(C(F)(F)F)ccn3c2C1c1nc2ccccc2s1` (stereo not drawn) [Example 3.44.2, 1-(1-(benzo[d]thiazol-2-yl)-7-(trifluoromethyl)-3,4-dihydroimidazo[1,2-a:5,4-c′]dipyridin-2(1H)-yl)-2-(2-chloro-4-(morpholinomethyl)phenoxy)ethan-1-one] returned an IC50 on human TPH1 of 23 nM.
On the same count and under the same terms, the figure for `COc1ccc(C2c3c(nc4cc(Cl)ccn34)CCN2C(=O)COc2ccc3ccccc3c2)cc1OCCO` (stereo not drawn) [Example 2.13.1, 1-(7-chloro-1-(3-(2-hydroxyethoxy)-4-methoxyphenyl)-3,4-dihydroimidazo[1,2-a:5,4-c′]dipyridin-2(1H)-yl)-2-(naphthalen-2-yloxy)ethan-1-one] is 34 nM; for `COc1ccc(C2c3c(nc4cc(C)ccn34)CCN2C(=O)COc2ccc(Cl)cc2Cl)cc1OC` (stereo not drawn) [Example 4.1.1, 2-(2,4-dichlorophenoxy)-1-(1-(3,4-dimethoxyphenyl)-7-methyl-3,4-dihydroimidazo[1,2-a:5,4-c′]dipyridin-2(1H)-yl)ethan-1-one] it is 32 nM; for `Cc1cc(C2c3c(nc4cc(C(F)(F)F)ccn34)CCN2C(=O)COc2ccc3ccccc3c2)n(C)n1` (stereo not drawn) [Example 3.40.1, 1-(1-(1,3-dimethyl-1H-pyrazol-5-yl)-7-(trifluoromethyl)-3,4-dihydroimidazo[1,2-a:5,4-c′]dipyridin-2(1H)-yl)-2-(naphthalen-2-yloxy)ethan-1-one] it is 432 nM.
On human TPH1, `COc1cc(C)c(C2c3c(nc4cc(C(F)(F)F)ccn34)CCN2C(=O)COc2ccc(CN3CCOCC3)cc2Cl)cn1` (stereo not drawn) [Example 3.39.1, 2-(2-chloro-4-(morpholinomethyl)phenoxy)-1-(1-(6-methoxy-4-methylpyridin-3-yl)-7-(trifluoromethyl)-3,4-dihydroimidazo[1,2-a:5,4-c′]dipyridin-2(1H)-yl)ethan-1-one] displayed an IC50 of 46 nM.
On the same count and under the same terms, for `O=C(COc1cccnc1Cl)N1CCc2nc3cc(C(F)(F)F)ccn3c2C1c1ccc(Cl)cc1F` (stereo not drawn) [Example 3.4.1, 1-(1-(4-chloro-2-fluorophenyl)-7-(trifluoromethyl)-3,4-dihydroimidazo[1,2-a:5,4-c′]dipyridin-2(1H)-yl)-2-((2-chloropyridin-3-yl)oxy)ethan-1-one] the value was 44 nM.
The same measure, in the same setting: the figure for `COc1ccc(C2c3c(nc4cc(C(F)(F)F)ccn34)CCN2C(=O)COc2ccc3ccccc3c2)cc1OC(F)(F)F` (stereo not drawn) [Example 3.13.1, 1-(1-(4-methoxy-3-(trifluoromethoxy)phenyl)-7-(trifluoromethyl)-3,4-dihydroimidazo[1,2-a:5,4-c′]dipyridin-2(1H)-yl)-2-(naphthalen-2-yloxy)ethan-1-one] is 75 nM.
Still for that read-out and setting: the figure for `Cc1ncc(C2c3c(nc4cc(C(F)(F)F)ccn34)CCN2C(=O)COc2ccc3ccccc3c2)cn1` (stereo not drawn) [Example 3.53.1, 1-(1-(2-methylpyrimidin-5-yl)-7-(trifluoromethyl)-3,4-dihydroimidazo[1,2-a:5,4-c′]dipyridin-2(1H)-yl)-2-(naphthalen-2-yloxy)ethan-1-one] is 161 nM; for `COc1ccc(C2c3c(nc4cc(C(F)(F)F)ccn34)CCN2C(=O)COc2cccnc2C)cc1OC` (stereo not drawn) [Example 3.1.16] it is 266 nM.
On human TPH1, `CCc1nc(C)ccc1OCC(=O)N1CCc2nc3ccccn3c2C1c1ccc(Cl)cc1F` (stereo not drawn) [Example 1.4.6, 1-(1-(4-chloro-2-fluorophenyl)-3,4-dihydroimidazo[1,2-a:5,4-c′]dipyridin-2(1H)-yl)-2-((2-ethyl-6-methylpyridin-3-yl)oxy)ethan-1-one] had an IC50 of 78 nM.
The same measure, in the same setting: for `COc1ccc(C2c3c(nc4ccccn34)CCN2C(=O)COc2ccc(C)cc2C)cc1OC` (stereo not drawn) [Example 1.1.2, 1-(1-(3,4-dimethoxyphenyl)-3,4-dihydroimidazo[1,2-a:5,4-c′]dipyridin-2(1H)-yl)-2-(2,4-dimethylphenoxy)ethan-1-one] the value was 180 nM.
Same read-out and setting: for `COc1ccc(C2c3c(nc4ccccn34)CCN2C(=O)COc2ccc3ccccc3c2)cc1O` (stereo not drawn) [Example 1.9.1, 1-(1-(3-hydroxy-4-methoxyphenyl)-3,4-dihydroimidazo[1,2-a:5,4-c′]dipyridin-2(1H)-yl)-2-(naphthalen-2-yloxy)ethan-1-one] the value was 230 nM; for `CS(=O)(=O)Nc1ccc(OCC(=O)N2CCc3nc4cc(Cl)ccn4c3C2c2ccc(Cl)cc2F)c(Cl)n1` (stereo not drawn) [Example 2.4.1, N-(6-chloro-5-(2-(7-chloro-1-(4-chloro-2-fluorophenyl)-3,4-dihydroimidazo[1,2-a:5,4-c′]dipyridin-2(1H)-yl)-2-oxoethoxy)pyridin-2-yl)methanesulfonamide], 8 nM.

(Values after patent publication US20180155344A1, “TRICYCLIC PIPERIDINE COMPOUNDS” (ACTELION PHARMACEUTICALS LTD, priority 2015, published 2018).)
